Measured values as given in patent US20230058623A1, “NOVEL HETEROARYL-TRIAZOLE COMPOUNDS AS PESTICIDES” (Bayer Aktiengesellschaft, priority 2019, published 2023).

Legend:
Type in all cases: in vivo
[1] = system: Rhipicephalus (Boophilus) microplus larvae (strain Parkhurst, resistant against synthetic pyrethroids); assay: Rhipicephalus (Boophilus) microplus in-vitro contact test, larval cattle tick; details: after 48 hours, read-out: activity (efficacy: larvae dead or moribund); for pest or weed control at 1 µg/cm2, 100 g/ha: application rate 1 μg/cm^2 (=100 g/ha); for pest or weed control at 5 µg/cm2, 500 g/ha: application rate 5 μg/cm^2 (=500 g/ha)
Experimental: Rhipicephalus (Boophilus) microplus—In-Vitro Contact Tests Larval Cattle Tick (Strain Parkhurst, Resistant Against Synthetic Pyrethroids)
(§1) 9 mg compound is solved in 1 ml acetone and diluted with acetone to the desired concentration. 250 μL of the test solution is filled in 25 mL glass test tubes and homogeneously distributed on the inner walls by rotation and tilting on a shaking device (2 h at 30 rpm). With a compound concentration of 900 ppm, an inner surface of 44.7 cm^2 and a homogeneous distribution, a dose of 5 μg/cm^2 is achieved.
After the solvent has evaporated, each test tube is filled with 20-50 cattle tick larvae (Rhipicephalus microplus), closed with a perforated lid and incubated in a horizontal position at 85% relative humidity and 27° C. in an incubator. After 48 hours efficacy is determined. The larvae are patted on the ground of the tubes and negative geotactic behavior is recorded.
An efficacy of 100% means all larvae are dead or moribund; 0% means no larvae are dead or moribund.

[2] = system: adult brown dog ticks (Rhipicephalus sanguineus); assay: Rhipicephalus sanguineus in-vitro contact test, adult brown dog ticks; details: application rate 5 μg/cm^2 (=500 g/ha), after 48 hours, read-out: activity (efficacy: ticks dead or moribund)
Experimental: Rhipicephalus sanguineus—In-Vitro Contact Tests with Adult Brown Dog Ticks
as §1, with “mL” for “ml”
(§2) After the solvent has evaporated, each test tube is filled with 5-10 adult brown dog ticks (Rhipicephalus sanguineus), closed with a perforated lid and incubated in a lying position at room temperature and relative humidity. After 48 hours efficacy is determined. The ticks are patted on the ground of the tubes and are incubated on a heating plate at 45-50° C. for at most 5 minutes. Immotile or uncoordinated moving ticks, which are not able to escape the heat by climbing upwards, are marked as dead or moribund.
An efficacy of 100% means all ticks are dead or moribund; 0% means no ticks are dead or moribund.

[3] = system: adult engorged female ticks (Rhipicephalus microplus); assay: Rhipicephalus (Boophilus) microplus injection test; details: 168 h, application rate 4 μg/tick, egg deposition after 7 days, read-out: activity (efficacy: infertile eggs)
Experimental: Rhipicephalus (Boophilus) microplus—Injection Test
Solvent: dimethyl sulfoxide
To produce a suitable preparation of active compound, 10 mg of active compound are dissolved in 0.5 mL solvent, and the concentrate is diluted with solvent to the desired concentration.
Five adult engorged female ticks (Rhipicephalus microplus) are injected with 1 μL compound solution into the abdomen. The ticks are transferred into replica plates and incubated in a climate chamber.
After 7 days egg deposition of fertile eggs is monitored. Eggs where fertility is not visible are stored in a climate chamber till hatching after about 42 days. An efficacy of 100% means all eggs are infertile; 0% means all eggs are fertile.

[4] = system: green peach aphid (Myzus persicae); assay: Myzus persicae oral test; details: 120 h, read-out: activity (mortality)
Experimental: Solvent: 100 parts by weight acetone
To produce a suitable preparation of active compound, 1 part by weight of active compound is mixed with the stated amount of solvent, and the concentrate is diluted with water to the desired concentration.
50 μL compound solution is filled in microtiter plates and 150 μL IPL41 insect medium (33%+15% sugar) is added to obtain a total volume of 200 μL per well. Afterwards the plates are sealed with parafilm through which a mixed population of the green peach aphid (Myzus persicae) can suck on the compound preparation.
(§3) After 5 days mortality in % is determined. 100% means all aphids have been killed and 0% means none of the aphids have been killed.

[5] = system: adult cat fleas (Ctenocephalides felis); assay: Ctenocephalides felis in-vitro contact test, adult cat flea; details: application rate 5 μg/cm^2 (=500 g/ha), after 48 hours, read-out: activity (efficacy: fleas dead or moribund)
Experimental: Ctenocephalides felis—In-Vitro Contact Tests Adult Cat Flea
as §1, with “mL” for “ml”
as §2, with “cat fleas (Ctenocephalides felis),” for “brown dog ticks (Rhipicephalus sanguineus),”, “fleas” for “ticks”, “fleas,” for “ticks,”
An efficacy of 100% means all fleas are dead or moribund; 0% means no fleas are dead or moribund.

[6] = system: green peach aphid (Myzus persicae); assay: Myzus persicae spray test; details: foliar, 120 h, application rate 100 g/ha, after 5 days, Chinese cabbage leaf disks, read-out: activity (mortality)
Experimental: Myzus persicae—Spray Test
(§4) To produce a suitable preparation of active compound, 1 part by weight of active compound is mixed with the stated amount of solvents and is diluted with water, containing an emulsifier concentration of 1000 ppm, to the desired concentration. Further test concentrations are prepared by dilution with emulsifier containing water.
Chinese cabbage (Brassica pekinensis) leaf disks infected with all instars of the green peach aphid (Myzus persicae), are sprayed with a preparation of the active ingredient of the desired concentration.
as §3

[7] = system: fall armyworm larvae (Spodoptera frugiperda); assay: Spodoptera frugiperda spray test; details: 168 h, application rate 100 g/ha, after 7 days, maize leaf sections
Experimental: Spodoptera frugiperda—Spray Test
as §4
Maize (Zea mays) leaf sections are sprayed with a preparation of the active ingredient of the desired concentration. Once dry, the leaf sections are infested with fall armyworm larvae (Spodoptera frugiperda).
After 7 days mortality in % is determined. 100% means all caterpillars have been killed and 0% means none of the caterpillars have been killed.

[8] = system: larvae of the banded cucumber beetle (Diabrotica balteata); assay: Diabrotica balteata spray test; details: 168 h, application rate 100 g/ha (=32 μg/well), after 7 days, wheat seeds, read-out: activity (efficacy: seedlings grown)
Experimental: Diabrotica balteata—Spray Test
as §4, with “solvent,” for “solvents”, “and the concentrate” for “and”
Soaked wheat seeds (Triticum aestivum) are placed in a multiple well plate filled with agar and some water and are incubated for 1 day to germinate (5 seeds per well). The germinated wheat seeds are sprayed with a test solution containing the desired concentration of the active ingredient. Afterwards each unit is infected with 10-20 larvae of the banded cucumber beetle (Diabrotica balteata).
After 7 days efficacy in % is determined. 100% means all the seedlings have grown up like in the untreated, uninfected control; 0% means none of the seedlings have grown.

[9] = system: larvae of the southern green stink bug (Nezara viridula); assay: Nezara viridula spray test; details: 96 h, after 4 days, barley plants; for mortality at 500 g/ha: application rate 500 g/ha, read-out: activity (mortality); for mortality at 100 g/ha: application rate 100 g/ha
Experimental: Nezara viridula—Spray Test
as §4, with “solvent,” for “solvents”, “and the concentrate” for “and”
Barley plants (Hordeum vulgare) are sprayed with a test solution containing the desired concentration of the active ingredient and are infested with larvae of the southern green stink bug (Nezara viridula).
After 4 days mortality in % is determined. 100% means all the stink bugs have been killed; 0% means none of the stink bugs have been killed.

Compound | pest or weed control at 1 µg/cm2, 100 g/ha [1] | pest or weed control at 5 µg/cm2, 500 g/ha [2] | pest or weed control at 0.004 mg [3] | mortality at 4 ppm [4] | pest or weed control at 5 µg/cm2, 500 g/ha [1] | pest or weed control at 5 µg/cm2 [5] | mortality at 100 g/ha [6] | mortality at 100 g/ha [7] | pest or weed control at 32 µg/disc, 100 g/ha [8] | mortality at 500 g/ha [9] | mortality at 100 g/ha [9]
C[C@H](NC(=O)c1cc(C(F)(F)F)cc(C(F)(F)F)c1)c1ncnn1-c1ccc(C(=O)N2CCC(O)CC2)cn1 [Example I-6] | 90% | 80% | 100% | 100% |  |  |  |  |  |  | 
C[C@H](NC(=O)c1cc(C(F)(F)F)cc(C(F)(F)F)c1)c1ncnn1-c1ccc(C(=O)N2CCC2)cn1 [Example I-10] | 100% | 100% | 100% | 100% | 100% | 100% | 90% | 100% |  |  | 
C[C@H](NC(=O)c1cc(Cl)cc(C(F)(F)F)c1)c1ncnn1-c1ccc(C(=O)N2CCCOCC2)cn1 [Example I-34] | 100% | 100% | 100% |  | 100% |  |  |  |  |  | 
CC1CCN(C(=O)c2ccc(-n3ncnc3[C@H](C)NC(=O)c3cc(Cl)cc(C(F)(F)F)c3)nc2)CC1 [Example I-38] |  | 80% | 100% |  |  |  |  |  | 100% |  | 
C[C@H](NC(=O)c1cc(C(F)(F)F)cc(C(F)(F)F)c1)c1ncnn1-c1ccc(C(=O)N(C)C2CCN(C)CC2)cn1 [Example I-62] |  |  |  |  |  |  |  |  | 80% | 100% | 
C[C@H](NC(=O)c1cc(C(F)(F)F)cc(C(F)(F)F)c1)c1ncnn1-c1ccc(C(=O)N2CCNC(=O)C2)cn1 [Example I-65] |  |  |  | 100% |  |  |  |  |  |  | 90%
C[C@H](NC(=O)c1cc(Cl)cc(S(=O)(=O)C2CC2)c1)c1nc(C2CC2)nn1-c1ccc(C(=O)N2CCOCC2)cn1 [Example I-90] |  |  |  |  |  |  |  | 100% |  | 100% | 
C[C@H](NC(=O)c1cc(C(F)(F)F)cc(C(F)(F)F)c1)c1ncnn1-c1ccc(C(=O)N2CCOCC2c2ncno2)cn1 (stereo partly shown) [Example I-98] | 100% | 100% |  | 100% | 100% | 90% |  |  | 100% |  | 90%
Cc1nc([C@H](C)NC(=O)c2cc(C(F)(F)F)cc(C(F)(F)F)c2)n(-c2ncc(C(=O)N3C[C@@H](C)O[C@H](C)C3)s2)n1 [Example I-106] | 100% | 100% | 100% | 100% | 100% |  |  | 100% | 100% |  | 
C[C@H](NC(=O)c1cc(Cl)cc(S(C)(=O)=O)c1)c1ncnn1-c1ccc(C(=O)N2CCSCC2)cn1 [Example I-120] |  |  |  | 100% |  |  |  |  | 80% |  | 90%
C[C@@H]1CN(C(=O)c2ccc(-n3ncnc3[C@H](C)NC(=O)c3cc(Cl)cc(S(C)(=O)=O)c3)nc2)C[C@@H](C)O1 [Example I-121] |  |  |  | 100% |  |  |  |  |  | 100% | 90%
CCc1nc([C@H](C)NC(=O)c2cc(Cl)cc(S(=O)(=O)C3CC3)c2)n(-c2ccc(C(=O)N3C[C@@H](C)O[C@@H](C)C3)cn2)n1 [Example I-133] |  |  |  |  |  |  |  | 100% |  | 100% | 
CCc1nc([C@H](C)NC(=O)c2cc(Br)cc(OC(F)(F)F)c2)n(-c2ccc(C(=O)N3C[C@@H](C)O[C@@H](C)C3)cn2)n1 [Example I-135] | 100% | 100% |  |  | 100% | 100% |  | 100% | 100% | 100% | 
C[C@@H]1CN(C(=O)c2cnc(-n3ncnc3[C@H](C)NC(=O)c3cc(OC(F)(F)F)cc(C4CC4)c3)cn2)C[C@H](C)O1 [Example I-141] |  |  |  |  |  |  | 90% | 100% |  | 100% | 90%
